Read-outs that look alike come from different tables or passages of the source.
Assays:
[1] = biological target: T1, SpsB (Staphylococcus aureus, UniProt P0A070); experiment: Inhibition of SpsB enzyme activity (fluorescence-based assay, bacterial membrane fraction); type: biochemical
T1 construct: using a bacterial membrane fraction as a source of SpsB; from tissue
T1 sequence (P0A070 1-191): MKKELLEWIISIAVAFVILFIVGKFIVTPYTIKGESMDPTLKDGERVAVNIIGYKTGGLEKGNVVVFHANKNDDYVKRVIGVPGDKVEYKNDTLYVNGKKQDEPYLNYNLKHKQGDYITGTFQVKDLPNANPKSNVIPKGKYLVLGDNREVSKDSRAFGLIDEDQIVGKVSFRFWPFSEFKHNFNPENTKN
Protocol: Signal peptidase enzyme activity was measured in a fluorescence-based assay using a bacterial membrane fraction as a source of SpsB (See Bruton et al., 2003, Eur J Med Chem 38:351-356). The SpsB substrate is a synthetic lipopeptide, decanoyl-K(DABCYL)-TPTAKA↓ASKKD-D(EDANS)—NH2 (prepared by JPT Peptide Technologies, Berlin, Germany). Assays were performed with 20 μM peptide substrate (Km≈5 μM) and reactions were initiated with enzyme addition (final protein concentration of 0.6 mg/mL). SpsB mediated cleavage of the peptide substrate was detected as an increase in fluorescence (excitation 340 nm/emission 460 nm).

[2] = test system: MB 5393 (COL), a methicillin-resistant S. aureus strain; experiment: Determination of minimum and synergistic inhibitory concentration; type: cell-based; conditions: for SIC: presence of imipenem (4 μg/mL); for MIC: Staphylococcus aureus
Protocol: MB 5393 (COL), a methicillin-resistant S. aureus strain, was inoculated into Trypticase Soy Broth (TSB, BBL) and grown in a humidified incubator for 18 hours with rotary shaking at 220 rpm and kept on ice until used.
A quantity of imipenem (Merck Chemical Collection) was weighed out and dissolved into sterile 10 mM MOPS buffer at pH 7. This solution was diluted to 1600 μg/mL, 200 μg/mL, and 25 μg/mL and filter-sterilized through a 0.45 μm filter. From these solutions, seven 1:2 serial dilutions were prepared using sterile 10 mM MOPS buffer at pH 7. The final concentration ranges tested were 128 to 2 μg/mL, 16 to […], and 2 to 0.03 μg/mL. The solutions were kept refrigerated until used.
Test compounds (EXAMPLES 1-67) were prepared in sterile water or DMSO at a concentration of 3.2 mg/mL. From this solution, 11 serial 1:2 dilutions were prepared using sterile water. The final concentration range tested was 64 to 0.0313 μg/mL. The solutions were kept refrigerated until used.
Two-fold serial dilutions of test compounds were tested in the presence and absence of subinhibitory concentrations of imipenem (4 μg/mL) in 96-well U bottom microliter dishes in microbiological growth media. The plates were inoculated with bacterial cells to a final concentration of ˜5×10^5 CFU/mL. Test plates were incubated stationery at 37° C. for 22-24 hours.
After 22 hours of incubation, the Minimum inhibitory concentrations (MICs) were determined, defined as the lowest concentration of antibiotic that prevented all visible growth in the absence of imipenem. Synergistic inhibitory concentrations (SICs) were determined, defined as the lowest concentration of antibiotic that prevented all visible growth in the presence of imipenen.

[3] = MRSA COL, absence of imipenem, 22 hours, read-out: MIC

SMILES	IC50 [1] [nM]	SIC ([2]; MRSA COL, 22 hours)	MIC ([2]; MRSA, 22 h) [µg/mL]	MIC [2, 3] [µg/mL]
CCCCCCCCCc1ccc(-c2ncc(C(=O)NCCC(=O)N[C@@H](CCCCN)C(=O)N(C)[C@@H]3C(=O)N[C@@H](C)C(=O)N[C@H](C(=O)O)Cc4ccc(O)c(c4)-c4cc3ccc4O)cn2)cc1 [EXAMPLE 26]	< 10	G (G: SIC <0.0625)	< 1	
C[C@@H]1NC(=O)[C@@H](N(C)C(=O)[C@H](CCCCN)NC(=O)CCNC(=O)c2ccc(-c3ccc(CC4CCCCC4)cc3)cc2)c2ccc(O)c(c2)-c2cc(ccc2O)C[C@@H](C(=O)O)NC1=O [EXAMPLE 27]	< 10	G (G: SIC <0.0625)	< 1	
CCCCCCCc1ccc(-c2ccc(C(=O)NCCC(=O)N[C@@H](CCCCN)C(=O)N(C)[C@@H]3C(=O)N[C@@H](C)C(=O)N[C@H](C(=O)O)Cc4ccc(O)c(c4)-c4cc3ccc4O)cc2)cc1 [EXAMPLE 29]	< 10	G (G: SIC <0.0625)	< 1	
CCCCCCc1ccc(-c2ccc(C(=O)NCCC(=O)N[C@@H](CCCCN)C(=O)N(C)[C@@H]3C(=O)N[C@@H](C)C(=O)N[C@H](C(=O)O)Cc4ccc(O)c(c4)-c4cc3ccc4O)cc2)cc1 [EXAMPLE 31]	< 10	G (G: SIC <0.0625)	< 1	
CCCCCCCCCc1ccc(-c2ccc(C(=O)NCCC(=O)N[C@@H](CCCCN)C(=O)N(C)[C@@H]3C(=O)N[C@@H](C)C(=O)N[C@H](C(=O)O)Cc4ccc(O)c(c4)-c4cc3ccc4O)nc2)cc1 [EXAMPLE 32]	< 10	G (G: SIC <0.0625)	< 1	
CCCCCCCCCCc1ccc2cc(C(=O)NCCC(=O)N[C@@H](CCCCNC(C)=O)C(=O)N(C)[C@@H]3C(=O)N[C@@H](C)C(=O)N[C@H](C(=O)O)Cc4ccc(O)c(c4)-c4cc3ccc4O)ccc2c1 [EXAMPLE 33]	< 10	G (G: SIC <0.0625)		> 8
CCCCCCCCCc1ccc(-c2ncc(C(=O)NCCC(=O)N[C@@H](CCCCN(C)C)C(=O)N(C)[C@@H]3C(=O)N[C@@H](C)C(=O)N[C@H](C(=O)O)Cc4ccc(O)c(c4)-c4cc3ccc4O)cn2)cc1 [EXAMPLE 34]	< 10	G (G: SIC <0.0625)	< 1	
CCCCCc1ccc(-c2ccc(C(=O)NCCC(=O)N[C@@H](CCCCN)C(=O)N(C)[C@@H]3C(=O)N[C@@H](C)C(=O)N[C@H](C(=O)O)Cc4ccc(O)c(c4)-c4cc3ccc4O)cc2)cc1 [EXAMPLE 35]	< 10	G (G: SIC <0.0625)	< 1	
CCCCCCCOCc1ccc(-c2ccc(C(=O)NCCC(=O)N[C@@H](CCCCN)C(=O)N(C)[C@@H]3C(=O)N[C@@H](C)C(=O)N[C@H](C(=O)O)Cc4ccc(O)c(c4)-c4cc3ccc4O)cc2)cc1 [EXAMPLE 36]	< 10	G (G: SIC <0.0625)	< 1	
CC(C)CCCCCCc1ccc(-c2ccc(C(=O)NCCC(=O)N[C@@H](CCCCN)C(=O)N(C)[C@@H]3C(=O)N[C@@H](C)C(=O)N[C@H](C(=O)O)Cc4ccc(O)c(c4)-c4cc3ccc4O)cc2)cc1 [EXAMPLE 37]	< 10	G (G: SIC <0.0625)	< 1	
C[C@@H]1NC(=O)[C@@H](N(C)C(=O)[C@H](CCCCN)NC(=O)CCNC(=O)c2ccc(CCCCCCCc3ccccc3)cc2)c2ccc(O)c(c2)-c2cc(ccc2O)C[C@@H](C(=O)O)NC1=O [EXAMPLE 38]	< 10	G (G: SIC <0.0625)	< 1	
CCCCCCCCCc1ccc(-c2ccc(C(=O)NCCC(=O)N[C@@H](CCCCN)C(=O)N(C)[C@@H]3C(=O)N[C@@H](C)C(=O)N[C@H](C(=O)O)Cc4ccc(O)c(c4)-c4cc3ccc4O)c(O)c2)cc1 [EXAMPLE 39]	< 10	G (G: SIC <0.0625)	< 1	
CCCCCCCCCc1ccc(-c2ccc(C(=O)NCCC(=O)N3C[C@H](N)C[C@H]3C(=O)N(C)[C@@H]3C(=O)N[C@@H](C)C(=O)N[C@H](C(=O)O)Cc4ccc(O)c(c4)-c4cc3ccc4O)cc2)cc1 [EXAMPLE 40]	< 10	G (G: SIC <0.0625)	< 1	
CCCCCCCCCc1ccc(-c2nc(C(=O)NCCC(=O)N[C@@H](CCCCN)C(=O)N(C)[C@@H]3C(=O)N[C@@H](C)C(=O)N[C@H](C(=O)O)Cc4ccc(O)c(c4)-c4cc3ccc4O)cs2)cc1 [EXAMPLE 41]	< 10	G (G: SIC <0.0625)	< 1	
C[C@@H]1NC(=O)[C@@H](N(C)C(=O)[C@H](CCCCN)NC(=O)CCNC(=O)c2ccc(-c3ccc(C(C)(C)C)cc3)cc2)c2ccc(O)c(c2)-c2cc(ccc2O)C[C@@H](C(=O)O)NC1=O [EXAMPLE 42]	< 10	H (H: SIC 0.062-1)	< 1	
CCCCCCCCCc1ccc(-c2ccc(C(=O)NCCC(=O)N[C@@H](CCCCN)C(=O)N(C)[C@@H]3C(=O)N[C@@H](C)C(=O)N[C@H](C(=O)O)Cc4ccc(O)c(c4)-c4cc3ccc4O)c(C)c2)cc1 [EXAMPLE 43]	< 10	G (G: SIC <0.0625)	< 1	
CCCCCCCCCc1ccc(-c2ccc(C(=O)NCCC(=O)N3C[C@@H](N)C[C@H]3C(=O)N(C)[C@@H]3C(=O)N[C@@H](C)C(=O)N[C@H](C(=O)O)Cc4ccc(O)c(c4)-c4cc3ccc4O)cc2)cc1 [EXAMPLE 44]	< 10	G (G: SIC <0.0625)	< 1	
CCCCCCCCCc1ccc(-c2ccc3sc(C(=O)NCCC(=O)N[C@@H](CCCCN)C(=O)N(C)[C@@H]4C(=O)N[C@@H](C)C(=O)N[C@H](C(=O)O)Cc5ccc(O)c(c5)-c5cc4ccc5O)cc3c2)cc1 [EXAMPLE 45]	< 10	G (G: SIC <0.0625)	1 to 8	
CCC[C@H]1CC[C@H](c2ccc(-c3ccc(C(=O)NCCC(=O)N[C@@H](CCCCN)C(=O)N(C)[C@@H]4C(=O)N[C@@H](C)C(=O)N[C@H](C(=O)O)Cc5ccc(O)c(c5)-c5cc4ccc5O)cc3)cc2)CC1 [EXAMPLE 46]	< 10	G (G: SIC <0.0625)	< 1	
CCCCCCCCCc1ccc(-c2ccc3cc(C(=O)NCCC(=O)N[C@@H](CCCCN)C(=O)N(C)[C@@H]4C(=O)N[C@@H](C)C(=O)N[C@H](C(=O)O)Cc5ccc(O)c(c5)-c5cc4ccc5O)sc3c2)cc1 [EXAMPLE 47]	< 10	G (G: SIC <0.0625)	1 to 8	
CCCc1ccc(-c2ccc(C(=O)NCCC(=O)N[C@@H](CCCCNC=N)C(=O)N(C)[C@@H]3C(=O)N[C@@H](C)C(=O)N[C@H](C(=O)O)Cc4ccc(O)c(c4)-c4cc3ccc4O)cc2)cc1 [EXAMPLE 48]	< 10	H (H: SIC 0.062-1)	1 to 8	
C[C@@H]1NC(=O)[C@@H](N(C)C(=O)[C@H](CCCCN)NC(=O)CCNC(=O)c2ccc(-c3ccc(C4CCCCC4)cc3)cc2)c2ccc(O)c(c2)-c2cc(ccc2O)C[C@@H](C(=O)O)NC1=O [EXAMPLE 49]	< 10	G (G: SIC <0.0625)	< 1	
CCCCCCCCCc1ccc(-c2ccc(C(=O)NCCC(=O)N[C@@H](CCCCO)C(=O)N(C)[C@@H]3C(=O)N[C@@H](C)C(=O)N[C@H](C(=O)O)Cc4ccc(O)c(c4)-c4cc3ccc4O)cc2)cc1 [EXAMPLE 50]	< 10	H (H: SIC 0.062-1)		> 8

— patent US20130244929A1 (priority 2010, published 2013)
